Common to all, as to format: in vivo
Test [1] has as its system Amaranthus palmeri S. Wats. (Palmer amaranth, AMAPA). Put plainly: Postemergence herbicidal weed control, fluroxypyr-meptyl and thifensulfuron-methyl, field trials (Table 4). The following applies: 7DAA1, 50 g ae/ha. On the procedure:
(§1) Seeds of the desired test plant species were planted in a peat-based potting soil, Metro-Mix 360® in plastic pots with a surface area of 128 square centimeters (cm^2). Metro-Mix 360® consists of formulated Canadian sphagnum peat moss, coarse perlite, bark ash, a starter nutrient charge (with gypsum), a slow-release nitrogen and dolomitic limestone. The plants were grown for 7-19 days in a greenhouse with an approximate 14-hour (h) photoperiod which was maintained at about 29° C. during the day and 26° C. during the night. Nutrients and water were added on a regular basis and supplemental lighting was provided with overhead metal halide 1000-Watt lamps as necessary. The plants were treated with postemergence foliar applications when they reached the third to fourth true leaf stage. All treatments were applied using a randomized complete block trial design, with 4 replications per treatment.
(§2) Treatments consisted of the compounds as listed in Tables 1 to 4, each compound applied alone and in combination. Commercially formulated products of fluroxypyr-meptyl (STARANE™, 333 grams acid equivalent per liter (g ae/L) EC), diclosulam (SPIDER® 84WG), cloransulam-methyl (FIRSTRATE™ 84WG), chlorimuron-ethyl (CLASSIC® 25WG) and thifensulfuron-methyl (HARMONY® 50SG). Formulated amounts of fluroxypyr-meptyl, diclosulam, cloransulam-methyl, chlorimuron-ethyl and thifensulfuron-methyl were placed in 60 milliliter (mL) glass vials and dissolved in a volume of 30 or 60 mL of a water solution containing Agri-dex crop oil concentrate in a 1% volume per volume (v/v) ratio. Compound requirements are based upon either a 30- or a 60-mL application volume at a rate of 200 liters per hectare (L/ha). Spray solutions of the mixtures were prepared by adding the stock solutions to the appropriate amount of dilution solution to form either a 30- or a 60-mL spray solution with active ingredients in single and two-way combinations. Formulated compounds were applied to the plant material with an overhead Generation III Research Sprayer manufactured by DeVries Manufacturing in Hollandale, Minn., USA. The track sprayer was equipped with an 8003E nozzle calibrated to deliver 200 L/ha at a spray height of 18 inches (43 centimeters (cm)) above average plant canopy.
(§3) The treated plants and untreated control plants were placed in a greenhouse as described above and watered by sub-irrigation to prevent wash-off of the test compounds.
(§4) Treatments were rated at 7 to 21 days after application (DAA) as compared to the untreated control plants. Visual weed control was scored on a scale of 0 to 100 percent where 0 corresponds to no injury and 100 corresponds to complete kill.
(§5) Field trials were conducted using standard herbicide small plot research methodology. Plots varied from 3×3.3 meter (m) to 4.5×10 m (width×length) with 4 replicates per treatment. The crops used in the field trials were grown using normal cultural practices for land preparation, fertilization, seeding and maintenance to ensure good growth of the crop and the weeds.
(§6) All treatments in the field trials were applied using either pressurized air or carbon dioxide (CO2) backpack or bicycle sprayers calibrated to apply 100-187 L/ha spray volume. Flat Fan spray nozzles were used in all trials, with water as the diluent applied at 275-300 kilopascals (kPa). Weed sizes at application ranged from 10 to 40 cm tall. […]

In test [2] the test system is Abutilon theophrasti (velvetleaf, ABUTH). The test is described as above. Particulars: 14DAA1, 100 g ae/ha. On the procedure: as §1, §2, §3, §4, §5, §6
For test [3], the system named is Sida cordifolia L. (heartleaf sida, SIDCO). Kind of test: Postemergence herbicidal weed control, fluroxypyr-meptyl and diclosulam, greenhouse trials (Table 1). Particulars: 14DAA1, 200 g ae/ha. The protocol:
as §1
Treatments consisted of the compounds as listed in Tables 1 to 4, each compound applied alone and in combination. […]
Treatments were rated at 7 to 21 days after application (DAA) as compared to the untreated control plants. Visual weed control was scored on a scale of 0 to 100 percent where 0 corresponds to no injury and 100 corresponds to complete kill. […]

The test system of test [4] is Chenopodium album (common lambsquarters, CHEAL). Described as above. The protocol:
as §1, §2, §3, §4
(§7) Colby's equation was used to determine the herbicidal effects expected from the mixtures (Colby, S. R. Calculation of the synergistic and antagonistic response of herbicide combinations. Weeds 196715, 20-22). A t-test (alpha=0.05) between Colby predictions and observed combinations was used to test for significant differences indicating synergy or antagonism. The results presented in the Tables were significant according to the described criteria.
(§8) The following equation was used to calculate the expected activity of mixtures containing two active ingredients, A and B: Expected=A+B−(A×B/100) • A=observed efficacy of active ingredient A at the same concentration as used in the mixture; • B=observed efficacy of active ingredient B at the same concentration as used in the mixture.

The subject of test [5] is Amaranthus rudis Sauer (common waterhemp, AMATA). Kind of test: Postemergence herbicidal weed control, fluroxypyr-meptyl and chlorimuron-ethyl, field trials (Table 3). On the procedure: as §1, §2, §3, §4, §5
(§9) All treatments in the field trials were applied using either pressurized air or carbon dioxide (CO2) backpack or bicycle sprayers calibrated to apply 100-187 L/ha spray volume. Flat Fan spray nozzles were used in all trials, with water as the diluent applied at 275-300 kilopascals (kPa). Weed sizes at application ranged from 10 to 40 cm tall. Commercially available products of fluroxypyr-meptyl (STARANE™, 180 and 333 g ae/L EC), diclosulam (SPIDER® 84WG), and thifensulfuron-methyl (HARMONY® 75WG) were mixed in water at appropriately formulated product rates to achieve the desired rates based on a unit area of application (hectare) to achieve the desired rates as shown. No adjuvants were tank-mixed with any treatments applied in the field trials. Treatments were rated at 14-26 days after application as compared to the untreated control plants. […]

Test [6] relates to Abutilon theophrasti (velvetleaf, ABUTH). The test is described as above. The protocol: as §1, §2, §3, §4, §5, §9
The test system of test [7] is Amaranthus retroflexus L. (redroot pigweed, AMARE). Kind of test: Postemergence herbicidal weed control, fluroxypyr-meptyl and thifensulfuron-methyl, field trials (Table 4). The following applies: 21DAA1, 17.5 g ae/ha. On the procedure:
as §5
(§10) All treatments in the field trials were applied using either pressurized air or carbon dioxide (CO2) backpack or bicycle sprayers calibrated to apply 100-187 L/ha spray volume. Flat Fan spray nozzles were used in all trials, with water as the diluent applied at 275-300 kilopascals (kPa). Weed sizes at application ranged from 10 to 40 cm tall. Commercially available products of fluroxypyr-meptyl (STARANE™, 180 and 333 g ae/L EC), diclosulam (SPIDER® 84WG), and thifensulfuron-methyl (HARMONY® 75WG) were mixed in water at appropriately formulated product rates to achieve the desired rates based on a unit area of application (hectare) to achieve the desired rates as shown. No adjuvants were tank-mixed with any treatments applied in the field trials. Treatments were rated at 14-26 days after application as compared to the untreated control plants. Visual weed control was scored on a scale of 0 to 100 percent where 0 corresponds to no injury and 100 corresponds to complete kill.
(§11) The treated plots and control plots were rated blind at various intervals after application. Ratings were reported on a Percent (%) Visual Control basis, where 0 corresponds to no visual effect/weed control and 100 corresponds to complete kill of the target weeds.
as §7, §8

In test [8] the test system is Chenopodium album (common lambsquarters, CHEAL). The test is described as above. Particulars: 21DAA1, 17.5 g ae/ha. On the procedure:
as §5, §10, §11, §7, §8

The subject of test [9] is Polygonum convolvulus L. (wild buckwheat, POLCO). Described as above. The following applies: 21DAA1, 17.5 g ae/ha. On the procedure:
as §5, §10, §11, §7, §8

Test [10] has as its system Commelina benghalensis (tropical spiderwort, COMBE). Kind of test: Postemergence herbicidal weed control, fluroxypyr-meptyl and diclosulam, greenhouse trials (Table 1). On the procedure:
as §5, §10, §11, §7, §8

With `CCCCCCC(C)OC(=O)COc1nc(F)c(Cl)c(N)c1Cl` (stereo not shown) [Fluroxypyr-meptyl, fluroxypyr-methylheptyl ester], the “Fluroxypyr-meptyl Mean % weed control” value in test [1] was determined as 48.8%; in [2], 80.8%; in test [3], 30.0%; in test [4] (8DAA1, 50 g ae/ha) it was 43.3%; in test [4] (14DAA1, 50 g ae/ha), 20.0%; in test [4] (21DAA1, 50 g ae/ha) it was 18.3%. Also, the “Fluroxypyr-meptyl Mean % weed control” value turned out to be 21.0% in [4] (21DAA1, 100 g ae/ha); 25.0% in test [5] (7DAA1, 25 g ae/ha); 7.5% in [5] (14DAA1, 25 g ae/ha); 67.0% in test [6] (14DAA1, 50 g ae/ha); 80.8% in test [6] (14DAA1, 100 g ae/ha); 3.8% in [7]. Also, the “Fluroxypyr-meptyl Mean % weed control” value was 3.8% in test [8]; 2.5% in test [9]; 27.5% in [10] (14DAA1, 200 g ae/ha); 25.0% in test [10] (26DAA1, 200 g ae/ha).
